Target: Kynurenine/alpha-aminoadipate aminotransferase, mitochondrial (Homo sapiens, UniProt Q8N5Z0)
Test: Inhibition Spectra Assay
Details: 37 °C
Description: Formation of kynurenic acid (KYNA) is indirectly assessed by a decrease in light absorbance at 370 nm (OD370) as the L-kynurenine (KYN) substrate is converted by the human KAT II (hKAT II) enzyme into KYNA. An inhibitor would therefore inhibit the decrease in OD370.The protocol was performed by placing the following reagents into a Costar 384 well black plate (30 uL total assay volume/well): 10 uL of 3x concentrated compound; 10 uL of 3x concentrated substrate mix (BGG (Sigma G-5009); 3 mM L-Kynurenine in 150 mM Tris Acetate (Sigma K3750); 3 mM alpha-ketoglutaric acid in 150 mM Tris Acetate (Sigma K2010); and 210 uM pyridoxal 5-phosphate (PLP) in 150 mM Tris Acetate (Sigma 9255)); and 10 uL of 3x concentrated enzyme (15 nM enzyme in 150 mM Tris Acetate with 0.3% bovine serum).Plates were sealed and incubated at 37 C. for 15-20 h before reading OD370 on a SpectraMax Plus plate reader.

Chain of Kynurenine/alpha-aminoadipate aminotransferase, mitochondrial (Q8N5Z0 whole entry): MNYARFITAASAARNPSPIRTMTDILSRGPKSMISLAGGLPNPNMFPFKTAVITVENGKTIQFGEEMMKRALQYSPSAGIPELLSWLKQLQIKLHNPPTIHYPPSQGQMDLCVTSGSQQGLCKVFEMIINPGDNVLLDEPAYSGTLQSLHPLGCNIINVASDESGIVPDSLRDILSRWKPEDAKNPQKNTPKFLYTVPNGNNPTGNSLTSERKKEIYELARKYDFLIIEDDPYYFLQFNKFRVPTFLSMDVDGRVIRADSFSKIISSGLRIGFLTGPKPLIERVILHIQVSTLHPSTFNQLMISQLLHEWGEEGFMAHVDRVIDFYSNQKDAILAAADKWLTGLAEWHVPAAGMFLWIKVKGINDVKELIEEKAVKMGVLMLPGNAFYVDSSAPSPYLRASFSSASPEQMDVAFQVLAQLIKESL

Cn1nc2c(c1Cc1ccccc1)C[C@@H](N)C(=O)N2O [US8933095, 2]
IC50: 63.7 nM
